We go through two molecules from paper PMC11586334, “Molecular hybridization modification improves the stability and immunomodulatory activity of TP5 peptide” (Frontiers in Immunology, 2024).

Data set [1] deals with T1, recombinant TLR2 (Homo sapiens, UniProt O60603).
T1 construct: purchased R&D Systems
The data set is described as follows: SPR binding of YTP to immobilized TLR2. The following applies: ProteOn XPR36, TLR2 immobilized by amino coupling, 25°C, PBS with 1% Tween 20, 1:1 model. How it is done: […] (SPR) experiments were conducted using a ProteOn XPR36 instrument (Bio-Rad, Hercules, CA, USA) with a ProteOn GLH sensor chip (Bio-Rad) at 25°C. The running buffer (PBS with 1% Tween 20) was continuously passed into the reaction chamber at 30 μL/min. The SPR sensing chip with recombinant TLR2 (R&D Systems) was immobilized by amino coupling to capture YTP. The binding affinity of YTP to TLR2 was examined using peptide concentrations of […]. The running buffer was injected into the empty channels as a reference. Sensor chip regeneration and desorption were achieved by injecting 10 mM Gly-HCl buffer (pH 2.5) before the next round of analyses. The experimental data were processed using ProteOn manager software (version 2.0). The binding curves were processed for the start injection alignment and baseline. The reference-subtracted sensorgram was then fitted to the curves labeling a homogeneous 1:1 model. Protein surface data were grouped to fit the association (Ka) and dissociation (Kd) rate constants. The symmetry dissociation constant (KD) for the peptide-[…] interaction was evaluated by using the following equation: […]
In general terms: Surface plasmon resonance follows binding to a sensor surface in real time, without labels.

The test system of data set [2] is RAW264.7 macrophages. In kind it is cell-based, murine. How it is done: Murine macrophage cells (RAW264.7) were purchased from the Shanghai Cell Bank, the Institute of Cell Biology, China Academy of Sciences and cultured in Dulbecco’s modified Eagle’s medium (DMEM; HyClone, UT, USA). The DMEM medium was supplemented with 10% (v/v) fetal bovine serum (Bioscience) and 1% (v/v) penicillin/streptomycin (HyClone) and maintained at 37°C in a humidified atmosphere (5% CO2, 95% air).
RAW264.7 viability was measured using a Cell Counting Kit-8 (CCK-8) Assay Kit (Dojinbo, Japan). Cells were seeded in 96-well plates at a density of 2 × 10^4 cells/well and treated with or without YW12D, TP5 and YTP peptides (10–80 μg/mL). After incubation for 24 h, the cells were then incubated in CCK-8 reagent for 4 h at 37°C. The absorbance of each well was measured at 450 nm using a 96-well microplate reader. Cell viability was evaluated as follows:
(1) Cell viability (%)=(OD450 (sample)/OD450 (control))×100%

Data set [3] is described as follows: in vitro. The class given is in vitro ADME. The following applies: rat. How it is done:
Rat plasma was collected by centrifuging whole blood from healthy adult rats. YW12D, TP5, and YTP (10 µg/mL) were incubated for different time at 37°C in rat plasma. The samples were collected into prechilled tubes containing 1 mL of acidic acetone (hydrochloric acid/acetone/H2O, 1:40:5) and centrifuged at 2, 000 × g for 20 min at 4°C. The obtained precipitates were dried in vacuum. Then, the dried precipitates were dissolved in 0.5 mL of 1 M acetic acid. The peptide analysis was conducted using HPLC. The half-lives of the peptides were calculated by a logarithm-linear regression analysis of the peptide concentrations.

Data set [4] deals with recombinant TLR2 (Toll-like receptor 2) (UniProt O60603). In words: SPR; ProteOn XPR36, GLH sensor chip; recombinant TLR2 immobilised by amino coupling; YTP passed over at 0, 1.25, 2.5, 5 and 10 (μM in the results, mM in the methods); 25°C; running buffer PBS with 1% Tween 20, 30 μL/min; homogeneous 1:1 model.

A word on the half-life: it is the time needed for the level to fall by half in the phase considered. Low readings indicate fast loss, high ones slow loss. By Kd is commonly meant the equilibrium constant for the complex coming apart.

Ends that are not written are not given here.

T1 sequence (O60603 21-784, species assumed): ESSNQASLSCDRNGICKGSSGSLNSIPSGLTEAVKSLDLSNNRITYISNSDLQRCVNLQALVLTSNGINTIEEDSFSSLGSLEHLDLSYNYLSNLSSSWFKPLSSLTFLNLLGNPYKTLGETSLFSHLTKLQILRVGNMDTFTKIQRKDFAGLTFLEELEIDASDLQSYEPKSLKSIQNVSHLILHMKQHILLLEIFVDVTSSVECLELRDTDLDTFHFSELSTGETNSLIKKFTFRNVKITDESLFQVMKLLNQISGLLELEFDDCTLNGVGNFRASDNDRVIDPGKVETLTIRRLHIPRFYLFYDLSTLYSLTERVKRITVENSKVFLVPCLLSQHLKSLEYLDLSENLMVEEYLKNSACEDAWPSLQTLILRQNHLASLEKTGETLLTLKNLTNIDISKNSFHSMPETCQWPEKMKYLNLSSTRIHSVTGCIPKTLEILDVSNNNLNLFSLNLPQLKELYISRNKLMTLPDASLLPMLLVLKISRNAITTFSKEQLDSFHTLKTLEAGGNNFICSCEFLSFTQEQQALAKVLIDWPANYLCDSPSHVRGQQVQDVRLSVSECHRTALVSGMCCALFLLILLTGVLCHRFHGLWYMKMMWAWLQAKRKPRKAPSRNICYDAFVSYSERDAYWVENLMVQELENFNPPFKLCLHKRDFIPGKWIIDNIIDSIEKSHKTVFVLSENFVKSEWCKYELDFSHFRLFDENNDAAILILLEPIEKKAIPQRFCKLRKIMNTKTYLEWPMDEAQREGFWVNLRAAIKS
recombinant TLR2 (Toll-like receptor 2), sequence (O60603 21-588): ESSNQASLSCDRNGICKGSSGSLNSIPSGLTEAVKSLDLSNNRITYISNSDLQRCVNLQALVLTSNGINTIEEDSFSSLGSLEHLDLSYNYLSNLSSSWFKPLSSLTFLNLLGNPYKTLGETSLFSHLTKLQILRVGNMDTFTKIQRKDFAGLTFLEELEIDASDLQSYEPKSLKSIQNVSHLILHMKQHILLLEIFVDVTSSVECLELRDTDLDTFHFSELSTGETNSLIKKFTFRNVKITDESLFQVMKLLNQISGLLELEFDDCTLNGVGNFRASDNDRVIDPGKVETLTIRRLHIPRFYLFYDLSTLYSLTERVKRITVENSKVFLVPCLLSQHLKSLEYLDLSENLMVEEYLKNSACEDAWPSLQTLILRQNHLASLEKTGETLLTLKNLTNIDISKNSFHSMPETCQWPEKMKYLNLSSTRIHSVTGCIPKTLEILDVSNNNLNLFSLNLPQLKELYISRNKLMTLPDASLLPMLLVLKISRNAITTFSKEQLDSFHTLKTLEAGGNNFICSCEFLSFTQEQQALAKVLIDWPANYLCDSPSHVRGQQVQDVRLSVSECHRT

For YVKLWRMIKFIRRKDVY [YTP], in data set [1], the Ka (association rate constant) came out at 4.31e+06 M⁻¹ s⁻¹ and the Kd (dissociation rate constant) turned out to be 0.0162 s⁻¹. The “cytotoxicity at high dose” value in data set [2] is on record as “no significant cytotoxicity”. In data set [3], the half-life in plasma entry was “more than 2 h”. Also, the half-life at 10 µg/mL in data set [3] (plasma) was 2 h.

B1: hybrid peptide YW12D-TP5 (YTP) (peptide)
peptide: YVKLWRMIKFIRRKDVY
Turning to B1, the Kd in data set [4] came to 3.76 nM.
